Paper PMC3671673, “In Vitro Morphological Assessment of Apoptosis Induced by Antiproliferative Constituents from the Rhizomes of Curcuma zedoaria” (Evidence-based Complementary and Alternative Medicine : eCAM, 2013)
≈ marks a conversion by molar mass, not a printed value. Read-outs that look alike come from different tables or passages of the source.

Experiments:
[1] = system: nasopharyngeal carcinoma cell line (KB); experiment: Neutral red cytotoxicity assay, KB; assay type: cell-based, human; settings: extracts, 72 h, mean ± SD of three replicates
Method: (§1) The human cancer cells KB, Ca Ski, MCF-7, HCT-116, A549, and noncancer human cell lines (MRC-5) were purchased from the American Tissue Culture Collection (ATCC, USA). The supplemented RPMI 1640 media and eagle minimum essential medium (EMEM) were purchased from Sigma-Aldrich, USA. The supplements or antibiotics such as foetal bovine serum (FBS), penicillin/streptomycin (P/S) (100 μg/mL), amphotericin B (50 μg/mL), and accutase were purchased from PAA Laboratories, Austria. Sodium pyruvate (11 mg/mL) purchased from Sigma-Aldrich, USA. […] Microtiter plate incubator shaker (LT Biomax 500) was used and absorbance was measured at 540 nm using an ELISA microplate reader (EMax microplate reader of Molecular Devices, USA). […]
(§2) The in vitro cytotoxicity activity was performed using the neutral red cytotoxicity assay based on the initial protocol as described earlier with some modifications. […] The density of the viable cells was counted by 0.4% of trypan blue exclusion in a haemocytometer. […] The optical density (OD) of the eluted dye was read at 540 nm using a microplate reader. […] Cytotoxicity of each test agent is expressed as IC50 value. […]

[2] = system: cervical carcinoma cell line (Ca Ski); experiment: cells; assay type: cell-based; settings: Homo sapiens, 72 h, neutral red, mean ± SD of three replicates, read-out: IC50 (μg/mL) Ca Ski
Method: (§3) The human cancer cells KB, Ca Ski, MCF-7, HCT-116, A549, and noncancer human cell lines (MRC-5) were purchased from the American Tissue Culture Collection (ATCC, USA). The supplemented RPMI 1640 media and eagle minimum essential medium (EMEM) were purchased from Sigma-Aldrich, USA. The supplements or antibiotics such as foetal bovine serum (FBS), penicillin/streptomycin (P/S) (100 μg/mL), amphotericin B (50 μg/mL), and accutase were purchased from PAA Laboratories, Austria. Sodium pyruvate (11 mg/mL) purchased from Sigma-Aldrich, USA. The cells were cultured in a SHEL LAB water-jacketed CO2 incubator with […] tissue culture flasks (Nunc, Denmark), which was observed routinely under inverted microscope (Leica DMI3000 B, Germany) for any contamination and seeded into 96-well flat bottom microtiter plate (Nunc, Denmark). The extract or pure compounds was dissolved in dimethyl sulfoxide (DMSO, Molecular Biology Grade, >99.9%) from Sigma-Aldrich, USA. Microtiter plate incubator shaker (LT Biomax 500) was used and absorbance was measured at 540 nm using an ELISA microplate reader (EMax microplate reader of Molecular Devices, USA). MCF-7 and Ca Ski were cultured in RPMI 1640 media supplemented with 10% v/v FBS, P/S, and amphotericin B and MRC-5 in EMEM media with 10% v/v FBS, P/S, amphotericin B, and sodium pyruvate. The cells were cultured in tissue culture flask in 5% CO2 incubator kept at 37°C in a humidified atmosphere and observed routinely under inverted microscope from any contaminations. Each fresh medium was replaced every 2 or 3 days until cell confluence was achieved and the cells were detached by using accutase.
(§4) The in vitro cytotoxicity activity was performed using the neutral red cytotoxicity assay based on the initial protocol as described earlier with some modifications. Briefly, cells were detached from the tissue culture flask with 1.0 mL solution of accutase and PBS solution. The cell pellet was obtained by centrifugation at 1,000 rpm for 5 minutes. The density of the viable cells was counted by 0.4% of trypan blue exclusion in a haemocytometer. Cells were then plated in 96-well microtiter plate (Nunc), at a concentration of 1 × 10^4 cells/well and incubated in a CO2 incubator at 37°C to allow the cells to adhere. After 24 h, the cells were treated with six different concentrations, that is, 1, 10, 25, 50, 75, and 100 μg/mL of each tested agent in three replicates. The plates were incubated for 72 h at 37°C in a 5% CO2 incubator. The untreated cells were regarded as a negative control, whilst cells incubated only with DMSO (0.5%, v/v) were used as a vehicle control. No effect due to the DMSO was observed. Doxorubicin was used as the positive control. After 72 h, the old medium was substituted with fresh medium containing 50 μg/mL neutral red. The 96-well plates were placed into incubator for 3 h. This is to allow the uptake of the vital dye into the lysosomes of viable and undamaged cells. Then, the media was discarded and cells were washed with 200 μL of neutral red washing solution. The dye was eluted from the cells by adding neutral red resorb solution (200 μL). The plate was further incubated for 30 min with rapid agitation on a microtiter plate shaker. The optical density (OD) of the eluted dye was read at 540 nm using a microplate reader. The experiments were conducted in triplicates. The percentage of inhibition of each of the test samples was calculated according to the following formula using the OD values obtained: percentage of inhibition (%) = (OD control − OD sample)/OD control × 100%. The average of three replicates was then obtained. Cytotoxicity of each test agent is expressed as IC50 value. The IC50 value is the concentration of test agents that cause 50% inhibition or cell death, averaged from the three experiments. The IC50 for each extract was extrapolated from the graphs of the percentage inhibition versus concentration of test agents.

[3] = system: hormone-dependent breast cancer cell line (MCF-7); experiment: cells; assay type: cell-based; settings: Homo sapiens, MCF7, 72 h, neutral red, mean ± SD of three replicates, read-out: IC50 (μg/mL) MCF-7
Method: as §3, §4

[4] = system: colon carcinoma cell line (HCT-116); experiment: Neutral red cytotoxicity assay, HCT-116; assay type: cell-based; settings: Homo sapiens, 72 h, mean ± SD of three replicates, read-out: IC50 (μg/mL) HCT-116
Method: as §3
as §4, with “The percentage of inhibition of each of the test samples was calculated according to the following formula using the OD values obtained: percentage of inhibition (%) = (OD control − OD sample)/OD control × 100%. The average of three replicates was then obtained.” left out, “The IC50 value is the concentration of test agents that cause 50% inhibition or cell death, averaged from the three experiments. The IC50 for each extract was extrapolated from the graphs of the percentage inhibition versus concentration of test agents.” left out

[5] = system: lung carcinoma cell line (A549); experiment: Neutral red cytotoxicity assay, A549; assay type: cell-based; settings: Homo sapiens, extracts, 72 h, mean ± SD of three replicates, read-out: IC50 (μg/mL) A549
Method: as §1, §2

[6] = system: noncancer human lung fibroblast cell line (MRC-5); experiment: Neutral red cytotoxicity assay, MRC-5; assay type: cell-based; settings: 72 h, mean ± SD of three replicates, read-out: IC50 (μg/mL) MRC-5
Method: as §3
as §4, with “The percentage of inhibition of each of the test samples was calculated according to the following formula using the OD values obtained: percentage of inhibition (%) = (OD control − OD sample)/OD control × 100%. The average of three replicates was then obtained.” left out, “The IC50 value is the concentration of test agents that cause 50% inhibition or cell death, averaged from the three experiments. The IC50 for each extract was extrapolated from the graphs of the percentage inhibition versus concentration of test agents.” left out

[7] = system: cervical carcinoma cell line (Ca Ski); design: method as in PMID 19471192; settings: reported previously, ref [21]; cited from earlier work
[8] = system: hormone-dependent breast cancer cell line (MCF-7); design: method as in PMID 19471192; settings: MCF-7, reported previously, ref [21]; cited from earlier work
[9] = system: colon carcinoma cell line (HCT-116); design: method as in PMID 19471192; settings: HCT-116, reported previously, ref [21]; cited from earlier work

In the case of `COc1cccc2c1C(=O)c1c(O)c3c(c(O)c1C2=O)C[C@@](O)(C(=O)CO)C[C@@H]3O[C@H]1C[C@H](N)[C@H](O)[C@H](C)O1` [Doxorubicin, reference compound], the “IC50 (μg/mL) KB” value [1] is reported as 0.27 ± 0.01 µg/mL (≈ 0.497 µM), the IC50 ([2]; extracts) is reported as 0.18 ± 0.06 µg/mL (≈ 0.331 µM) and the IC50 ([3]; extracts) is reported as 0.05 ± 0.01 µg/mL (≈ 0.092 µM). It also gave an IC50 ([4]; extracts) of 0.24 ± 0.04 µg/mL (≈ 0.442 µM), an IC50 [5] of 0.58 ± 0.01 µg/mL (≈ 1.07 µM) and an IC50 ([6]; MRC5, extracts) of 0.4 ± 0.03 µg/mL (≈ 0.736 µM).

`C/C1=C\CC[C@H](C)C(=O)C[C@H](C(C)C)C(=O)C1` [Neocurdione (2), neocurdione] gave an IC50 ([2]; isolated compounds) of 46.2 ± 1.1 µg/mL (≈ 195 µM), an IC50 ([3]; isolated compounds) of 53.5 ± 1.1 µg/mL (≈ 226 µM) and an IC50 ([4]; isolated compounds) of 64 ± 1.3 µg/mL (≈ 271 µM). For the same molecule, the IC50 ([6]; MRC5, isolated compounds) was 59 ± 0.4 µg/mL (≈ 250 µM).

Work on `C/C1=C\CC[C@@]2(C)O[C@@H]2C(=O)c2c(C)coc2C1` [Zederone (5), zederone] yielded an IC50 ([2]; isolated compounds) of over 100 µg/mL, an IC50 ([3]; isolated compounds) of over 100 µg/mL and an IC50 ([4]; isolated compounds) of over 100 µg/mL. The IC50 ([6]; MRC5, isolated compounds) was over 100 µg/mL.

In the case of `CC[C@H](CC[C@@H](C)[C@H]1CC[C@H]2[C@@H]3CC=C4C[C@@H](O)CC[C@]4(C)[C@H]3CC[C@]12C)C(C)C` [β-sitosterol (8), β-sitosterol], the “cytotoxicity (in words)” value [7] is given as “low cytotoxicity”, the “cytotoxicity (in words)” value [8] is given as “low cytotoxicity” and the “cytotoxicity (in words)” value [9] is given as “low cytotoxicity”.
